From patent publication US20230233540A1, “COMBINATION OF ANTIBODY-DRUG CONJUGATE AND CDK9 INHIBITOR” (AstraZeneca UK Limited, priority 2020, published 2023)

System: HCC1954 breast cancer cells (HER2+ cell line)
Test: Antitumor test, subcutaneous HCC1954 breast cancer xenograft, tumor growth inhibition
Type: in vivo, CB17-SCID mice
Conditions: AZD4573 monotherapy in the HCC1954 model
Procedure: Tumor volume was monitored via caliper measurements, and mice were randomized based on mean tumor size. […] All AZD4573 doses were administered IP, 2 hours apart. A BID regimen was used for 10 mg/kg dose, and TID was used for 5 mg/kg dose. AZD4573 dosing was given weekly thereafter for a total of 3 cycles.
Data represents change in tumor volume over time for treatment groups.

CC(=O)N[C@@H]1CCC[C@H](C(=O)Nc2cc(-c3cnn4c3CC(C)(C)C4)c(Cl)cn2)C1 [AZD4573, (1S,3R)-3-acetamido-N-(5-chloro-4-(5,5-dimethyl-5,6-dihydro-4H-pyrrolo[1,2-b]pyrazol-3-yl)pyridin-2-yl)cyclohexanecarboxamide]
tumor growth control: minimal tumor growth control
